Test results published in patent publication US5399487A, “6-peptidylamino-1-naphthalenesulfonamides useful as fluorogenic proteolytic enzyme substrates” (Haematologic Technologies, Inc., priority 1993, dated 1995).
Where a SMILES comes first, the peptide text is derived from it. The star is where a group is joined. pNA = O=[N+]([O-])c1ccc(N*)cc1; Tos = Cc1ccc(S(=O)(=O)*)cc1

Legend:
Assay type in all cases: biochemical
factor IIa = biological target: T1, factor IIa (Homo sapiens, UniProt P00734); assay: Kinetic constants of substrate hydrolysis, Chromozyme TH vs TosGPR-ANSN (Table A); settings: 22° C., 0.02M TBS pH 7.4, 0.15M NaCl
T1 construct: 0.5 nM human thrombin (IIa)
Experimental: (§1) The 6-amino-1-naphthalenesulfonamide detecting group increased the specificity of the overall kinetic efficiency of substrate hydrolysis by thrombin relative to the rate of hydrolysis of the p-nitroanilide substrate chromozyme TH (American Diagnostics). Commercially available substrate (Chromozyme TH, TosGPR-p-NA) was compared to a substrate of the present invention, Tosgly-pro-arg-ANSN(i-C4 H9) (TosGPR-ANSNH(i-C4 H9)) in an assay performed at 22° C. in 0.02M TBS buffer at pH 7.4, containing 0.15M NaCl.

factor Xa [1] = biological target: T2, factor Xa (Homo sapiens, UniProt P00742); assay: as above; settings: 22° C., 0.02M TBS pH 7.4, 0.15M NaCl
Experimental: as §1

thrombin (IIa) = biological target: T3, thrombin (IIa) (Homo sapiens, UniProt P00734); assay: Fluorogenic enzyme assay (Example 5); design: key to Kinetic constants, IIa (symbol b): slow substrate hydrolysis, no kinetic constants calculated; settings: for TIME TO 10% HYDROLYSIS (HOURS), IIa: substrate 1 μM
T3 construct: 0.5 nM human thrombin (IIa)
Procedure, shortened: (§2)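 Run in TBS (20 mM Tris, 150 mM NaCl, pH 7.4) at 22° C. Enzyme was added to buffer plus fluorogenic substrate, and the initial hydrolysis rate was followed as release of a 6-amino-1-naphthalenesulfonamide fluorophore (ex 352 nm, em 470 nm), quantified against a fluorophore standard curve. Km and kcat came from Michaelis-Menten fits.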

factor Xa [2] = biological target: T2, factor Xa; assay: Fluorogenic enzyme assay (Example 5); design: key to Kinetic constants, Xa (symbol b): slow substrate hydrolysis, no kinetic constants calculated
Procedure, shortened: as §2

[3] = biological target: activated protein C (APC) (Homo sapiens, UniProt P04070); assay: Fluorogenic enzyme assay (Example 5); settings: for TIME TO 10% HYDROLYSIS (HOURS), APC: 10 nM enzyme, substrate 1 μM; for Km / kcat /Km, APC / kcat, APC: Table 9
Procedure, shortened: as §2

plasmin (Plm) = plasmin (Plm) (Homo sapiens, UniProt P00747); assay: Fluorogenic enzyme assay (Example 5); settings: 10 nM enzyme, substrate 1 μM
Procedure, shortened: as §2

[4] = biological target: tissue plasminogen activator (t-PA) (Homo sapiens, UniProt P00750); assay: Fluorogenic enzyme assay (Example 5); settings: 100 nM enzyme, substrate 1 μM; for hydrolysis, t-PA (symbol d): at 100 hours
Procedure, shortened: as §2

urokinase (u-PA) = urokinase (u-PA) (Homo sapiens, UniProt P00749); assay: Fluorogenic enzyme assay (Example 5); settings: 100 nM enzyme, substrate 1 μM
factor VIIa = biological target: T4, factor VIIa (Homo sapiens, UniProt P08709); assay: Fluorogenic enzyme assay, relative hydrolysis rates (Table 8); settings: at 100 hours; 10 nM enzyme, substrate 1 μM
T4 construct: directly measure the enzymatic activity of factor VIIa in the presence and absence of tissue factor and phospholipid
T4 sequence (P08709 213-466 limits assumed): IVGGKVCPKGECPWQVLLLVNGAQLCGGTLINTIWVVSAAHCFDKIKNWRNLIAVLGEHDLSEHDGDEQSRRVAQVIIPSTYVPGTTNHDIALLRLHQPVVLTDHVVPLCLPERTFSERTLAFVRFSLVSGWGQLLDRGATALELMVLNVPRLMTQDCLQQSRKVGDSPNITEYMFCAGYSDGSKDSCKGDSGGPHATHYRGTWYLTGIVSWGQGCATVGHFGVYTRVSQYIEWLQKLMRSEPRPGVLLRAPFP
T4 sequence (P08709 61-212 limits assumed): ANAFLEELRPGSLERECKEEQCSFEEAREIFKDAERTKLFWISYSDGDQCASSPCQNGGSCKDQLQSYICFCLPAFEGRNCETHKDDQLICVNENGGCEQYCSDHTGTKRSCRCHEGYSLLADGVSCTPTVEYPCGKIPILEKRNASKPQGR
Experimental: (§3) Enzyme assays (except factor VIIa assays, see below) were conducted in 20 mM Tris, 150 mM NaCl, pH 7.4 (TBS) at room temperature (22° C.). The final volume for all reaction mixtures was 2.0 ml. Fluorogenic substrates were dissolved in DMSO to a stock concentration of 10 mM. The 10 mM stock solution was diluted in TBS to the final working concentration prior to all assays. Enzyme was added to mixtures containing buffer components and substrate and the initial rate of substrate hydrolysis was measured as the change in fluorescent intensity over time, corresponding to the generation of the particular 6-amino-1-naphthalenesulfonamide fluorophore from the provided substrate. Quantitation of substrate hydrolysis was accomplished by establishing a standard curve from the appropriate fluorescent moiety. Fluorescence was monitored (continuously or discontinuously) using a Perkin Elmer fluorescence spectrophotometer, model MPF-44A, equipped with a standard chart recorder. The fluorophore was detected using monochrometers set at an excitation wavelength of 352 nm and an emission wavelength of 470 nm. Light scattering artifacts were minimized using a 399 nm cut off filter in the emission light beam.
Factor VII assays were conducted in 20 mM HEPES, 150 mM NaCl, 5 mM CaCl2, pH 7.4 (HBS) at 37° C. The final volume for all reactions was 1.6 ml. 6-(Mes-D-Leu-Gly-Arg)amino-1-(N,N-diethyl)naphthalenesulfonamide was dissolved in DMSO to a stock concentration of 10 mM. This 10 mM stock solution of was diluted in HBS to final working concentration prior to all assays. For reactions involving tissue factor (TF) and phospholipid vesicles, recombinant human tissue factor was solubilized in either 0.04% n-dodecyl octaethylene glycol (C12 E8) or 0.8% octyl glucoside. The TF/n-dodecyl octaethylene glycol was then relipidated into PCPS or PC vesicles by a 30 minute incubation step as described by Lawson & Mann, J. Biol. Chem. 266: 11317-11327 (1991). TF/octyl glucoside was relipidated into PC or PCPS vesicles by a thirty minute incubation step followed by exhaustive dialysis. The final concentration of tissue factor used in the studies described here ranged from 2 to 50 nM depending on the nature of the experiment.
Fifteen minutes prior to the start of all reactions factor VIIa was added to the reaction system. This incubation period was followed by the addition of substrate (1 μM to 400 μM) to the mixture to start the reaction. In experiments designed to determine kinetic constants of substrate hydrolysis, 50 nM rVIIa was used when no tissue factor was present in the reaction system, while 0.5 nM rVIIa was used when tissue factor was present in the reaction system. The rate of substrate hydrolysis was measured by change in fluorescence over time, which corresponded with the generation of the 6-amino-1-(N,N-diethyl)naphthalenesulfonamide from the provided substrate. The kinetic constants of 6-(Mes-D-Leu-Gly-Arg)amino-1-(N,N-diethyl)naphthalenesulfonamide hydrolysis as a function of factor VIIa/tissue factor complex assembly are shown in Table 10.

factor IXa = factor IXa (Homo sapiens, UniProt P00740); assay: Fluorogenic enzyme assay (Example 5); design: key to Kinetic constants, IXa (symbol b): slow substrate hydrolysis, no kinetic constants calculated; settings: for Kinetic constants, IXa (symbol b) / Km / kcat, IXa / kcat/Km, IXa: Table 9; for hydrolysis, IXa (symbol d): at 100 hours; for hydrolysis, IXa (symbol d) / TIME TO 10% HYDROLYSIS (HOURS), IXa: 100 nM enzyme, substrate 1 μM
Experimental: as §3
The kinetic constants of substrate hydrolysis were determined using the non-linear least squares regression analysis program ENZFITTER (Cambridge, UK). This program was used to iteratively fit initial rates of substrate hydrolysis to the Michaelis-Menten equation and the kinetic constants of substrate hydrolysis (Km) and (kcat) were calculated.

Sequence of tissue plasminogen activator (t-PA) (P00750 36-562, species assumed): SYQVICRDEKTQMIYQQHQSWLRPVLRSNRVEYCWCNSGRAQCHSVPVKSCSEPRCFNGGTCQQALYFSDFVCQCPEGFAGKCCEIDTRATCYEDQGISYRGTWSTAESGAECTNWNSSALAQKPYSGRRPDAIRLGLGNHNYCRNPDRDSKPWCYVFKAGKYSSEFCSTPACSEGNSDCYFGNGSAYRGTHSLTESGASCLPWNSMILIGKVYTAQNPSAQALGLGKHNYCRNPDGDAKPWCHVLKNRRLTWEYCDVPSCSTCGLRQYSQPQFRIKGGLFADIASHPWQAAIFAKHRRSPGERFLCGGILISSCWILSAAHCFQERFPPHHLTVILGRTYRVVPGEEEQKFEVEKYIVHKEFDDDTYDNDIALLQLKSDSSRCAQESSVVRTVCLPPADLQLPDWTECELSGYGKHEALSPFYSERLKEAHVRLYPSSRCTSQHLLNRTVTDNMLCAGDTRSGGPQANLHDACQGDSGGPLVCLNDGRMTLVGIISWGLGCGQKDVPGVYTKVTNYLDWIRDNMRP
Sequence of factor IXa (P00740 227-461 limits assumed): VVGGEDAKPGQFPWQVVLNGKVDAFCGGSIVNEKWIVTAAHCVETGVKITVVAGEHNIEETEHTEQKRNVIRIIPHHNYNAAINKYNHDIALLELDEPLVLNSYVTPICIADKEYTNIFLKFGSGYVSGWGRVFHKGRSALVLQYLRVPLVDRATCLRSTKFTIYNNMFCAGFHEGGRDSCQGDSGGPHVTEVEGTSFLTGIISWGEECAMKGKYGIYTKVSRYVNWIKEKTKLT
Sequence of factor IXa (P00740 47-191 limits assumed): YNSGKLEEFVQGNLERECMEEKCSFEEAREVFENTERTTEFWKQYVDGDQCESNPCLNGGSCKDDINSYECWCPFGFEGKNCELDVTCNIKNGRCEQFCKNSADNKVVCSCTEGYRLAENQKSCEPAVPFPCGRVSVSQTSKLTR
Sequence of activated protein C (APC) (P04070 212-461 limits assumed): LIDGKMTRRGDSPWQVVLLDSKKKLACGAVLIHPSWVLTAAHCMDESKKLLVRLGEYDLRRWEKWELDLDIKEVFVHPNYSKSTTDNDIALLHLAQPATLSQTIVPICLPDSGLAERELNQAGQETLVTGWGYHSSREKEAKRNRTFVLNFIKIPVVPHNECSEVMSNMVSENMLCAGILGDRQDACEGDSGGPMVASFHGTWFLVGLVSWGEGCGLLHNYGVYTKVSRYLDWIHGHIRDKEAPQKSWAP
Sequence of activated protein C (APC) (P04070 43-197 limits assumed): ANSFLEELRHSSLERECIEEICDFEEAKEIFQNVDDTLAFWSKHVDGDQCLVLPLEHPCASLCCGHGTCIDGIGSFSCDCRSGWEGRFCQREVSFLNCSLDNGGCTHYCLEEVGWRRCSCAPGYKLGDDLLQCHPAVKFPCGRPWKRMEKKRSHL
T2 sequence (P00742 235-488 limits assumed): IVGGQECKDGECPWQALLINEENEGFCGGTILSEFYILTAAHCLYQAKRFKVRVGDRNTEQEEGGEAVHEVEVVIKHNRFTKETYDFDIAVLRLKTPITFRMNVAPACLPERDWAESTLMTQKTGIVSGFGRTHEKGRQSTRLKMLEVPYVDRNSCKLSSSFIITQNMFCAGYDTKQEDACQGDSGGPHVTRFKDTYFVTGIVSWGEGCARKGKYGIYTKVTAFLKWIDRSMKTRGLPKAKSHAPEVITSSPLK
T2 sequence (P00742 41-179 limits assumed): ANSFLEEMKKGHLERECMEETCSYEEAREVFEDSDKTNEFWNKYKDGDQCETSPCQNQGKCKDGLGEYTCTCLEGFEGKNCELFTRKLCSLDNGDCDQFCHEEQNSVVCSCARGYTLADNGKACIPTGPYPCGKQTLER
Sequence of plasmin (Plm) (P00747 581-810 limits assumed, species assumed): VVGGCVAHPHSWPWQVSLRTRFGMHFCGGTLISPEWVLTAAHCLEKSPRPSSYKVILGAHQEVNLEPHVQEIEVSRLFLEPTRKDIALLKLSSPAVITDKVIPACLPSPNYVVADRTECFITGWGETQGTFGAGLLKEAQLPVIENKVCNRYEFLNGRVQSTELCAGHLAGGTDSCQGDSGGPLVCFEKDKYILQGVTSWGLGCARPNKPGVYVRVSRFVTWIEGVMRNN
Sequence of plasmin (Plm) (P00747 97-580 limits assumed, species assumed): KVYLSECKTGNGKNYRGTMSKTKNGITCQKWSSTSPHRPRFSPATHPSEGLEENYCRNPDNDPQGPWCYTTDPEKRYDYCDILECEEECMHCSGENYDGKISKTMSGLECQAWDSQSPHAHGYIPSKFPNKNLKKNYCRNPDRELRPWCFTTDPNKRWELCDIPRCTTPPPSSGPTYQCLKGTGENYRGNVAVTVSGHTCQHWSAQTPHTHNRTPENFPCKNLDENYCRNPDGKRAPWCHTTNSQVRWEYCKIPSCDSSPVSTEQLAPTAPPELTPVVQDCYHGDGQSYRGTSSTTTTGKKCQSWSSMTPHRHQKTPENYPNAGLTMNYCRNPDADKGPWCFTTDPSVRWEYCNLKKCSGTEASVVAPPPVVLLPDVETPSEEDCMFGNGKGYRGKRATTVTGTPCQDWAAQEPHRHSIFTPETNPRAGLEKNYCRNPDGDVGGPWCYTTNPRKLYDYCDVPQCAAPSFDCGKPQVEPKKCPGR

| Structure (SMILES) | Kcat (factor IIa) | Km (factor IIa) | Kcat (factor Xa [1]) | Km (factor Xa [1]) | TIME TO 10% HYDROLYSIS (HOURS), IIa (thrombin (IIa); 10 nM enzyme) | Km (thrombin (IIa); Table 9) | kcat, IIa (thrombin (IIa); Table 9) | TIME TO 10% HYDROLYSIS (HOURS), Xa (factor Xa [2]; 10 nM enzyme, substrate 1 μM) | Km (factor Xa [2]; Table 9) | kcat /Km, Xa (factor Xa [2]; Table 9) | kcat, Xa (factor Xa [2]; Table 9) | TIME TO 10% HYDROLYSIS (HOURS), APC [3] | Km [3] | kcat /Km, APC [3] | kcat, APC [3] | TIME TO 10% HYDROLYSIS (HOURS), Plm (plasmin (Plm)) | hydrolysis, t-PA (symbol d) [4] | TIME TO 10% HYDROLYSIS (HOURS), u-PA (urokinase (u-PA)) | hydrolysis, VIIa (symbol d) (factor VIIa) | Kinetic constants, IXa (symbol b) (factor IXa) | further results |
| --- | --- | --- | --- | --- | --- | --- | --- | --- | --- | --- | --- | --- | --- | --- | --- | --- | --- | --- | --- | --- | --- |
| Cc1ccc(S(=O)(=O)NCC(=O)N2CCC[C@H]2C(=O)N[C@@H](CCCNC(=N)N)C(=O)Nc2ccc([N+](=O)[O-])cc2)cc1 [Chromozyme TH, reference compound] (Tos-Gly-Pro-Arg-pNA) | 14.1 | 13.8 µM | 244 s⁻¹ | 364 µM | – | – | – | – | – | – | – | – | – | – | – | – | – | – | – | – | – |
| CCCNS(=O)(=O)c1cccc2cc(NC(=O)[C@H](CCCNC(=N)N)NC(=O)[C@H](Cc3ccccc3)NC(=O)[C@@H]3CCCN3)ccc12.Cl.Cl [PFR-ANSNHC3 H7] | – | – | – | – | 5 h | 600 µM | 0.36 s⁻¹ | 1.25 h | 667 µM | 2000 M⁻¹ s⁻¹ | 1.33 s⁻¹ | 0.25 h | 240 µM | 19600 M⁻¹ s⁻¹ | 4.7 s⁻¹ | 13 h | d (hydrolysis at 100 hours was less than 10%.) | 6 h | d (hydrolysis at 100 hours was less than 10%.) | b | kcat /Km, IIa (thrombin (IIa); Table 9): 600 M⁻¹ s⁻¹; hydrolysis, IXa (symbol d) (factor IXa): d (hydrolysis at 100 hours was less than 10%.) |
| Cc1ccc(S(=O)(=O)NCC(=O)N2CCC[C@H]2C(=O)N[C@@H](CCCNC(=N)N)C(=O)Nc2ccc3c(S(=O)(=O)NCC(C)C)cccc3c2)cc1 [TosGPR-ANSNH(i-C4 H9)] | 45.6 | 10.5 µM | 11.2 s⁻¹ | 132 µM | – | 11 µM | 52.6 s⁻¹ | 0.05 h | 35.3 µM | 6800 M⁻¹ s⁻¹ | 2.4 s⁻¹ | 0.02 h | 800 µM | 150000 M⁻¹ s⁻¹ | 120 s⁻¹ | 0.25 h | – | 0.01 h | d (hydrolysis at 100 hours was less than 10%.) | – | TIME TO 10% HYDROLYSIS (HOURS), IIa (thrombin (IIa); 1 nM enzyme (footnote c)): 0.01 h; TIME TO 10% HYDROLYSIS (HOURS), t-PA [4]: 2 h; TIME TO 10% HYDROLYSIS (HOURS), IXa (factor IXa): 42 h; Km (factor IXa): 123 µM; kcat, IXa (factor IXa): 0.3 s⁻¹; kcat/Km, IXa (factor IXa): 2400 M⁻¹ s⁻¹ |
| CC(C)C[C@@H](NC(=O)OCc1ccccc1)C(=O)N1CCC[C@H]1C(=O)N[C@@H](CCCNC(=N)N)C(=O)Nc1ccc2c(S(=O)(=O)N3CCCCC3)cccc2c1 [ZD-LPR-ANSN(CH2)5] | – | – | – | – | – | 4.2 µM | 16.1 s⁻¹ | 0.02 h | 26.3 µM | 133000 M⁻¹ s⁻¹ | 3.5 s⁻¹ | 0.5 h | 246 µM | 28900 M⁻¹ s⁻¹ | 7.1 s⁻¹ | 0.08 h | – | 1 h | d (hydrolysis at 100 hours was less than 10%.) | – | TIME TO 10% HYDROLYSIS (HOURS), IIa (thrombin (IIa); 1 nM enzyme (footnote c)): 0.01 h; TIME TO 10% HYDROLYSIS (HOURS), t-PA [4]: 1 h; TIME TO 10% HYDROLYSIS (HOURS), IXa (factor IXa): 7 h; Km (factor IXa): 141 µM; kcat, IXa (factor IXa): 0.39 s⁻¹; kcat/Km, IXa (factor IXa): 2750 M⁻¹ s⁻¹ |
| N=C(N)NCCC[C@H](NC(=O)CNC(=O)CNC(=O)OCc1ccccc1)C(=O)N[C@@H](CCCNC(=N)N)C(=O)Nc1ccc2c(S(=O)(=O)NC3CCCCC3)cccc2c1 [ZGGRR-ANSNH(cyclo-C6 H11)] | – | – | – | – | 93 h | – | – | – | – | – | – | 0.6 h | 320 µM | 19300 M⁻¹ s⁻¹ | 6.2 s⁻¹ | 47 h | d (hydrolysis at 100 hours was less than 10%.) | – | d (hydrolysis at 100 hours was less than 10%.) | b | Kinetic constants, IIa (symbol b) (thrombin (IIa); Table 9): b; Kinetic constants, Xa (symbol b) (factor Xa [2]; Table 9): b; hydrolysis, Xa (symbol d) (factor Xa [2]; at 100 hours, 10 nM enzyme, substrate 1 μM): d (hydrolysis at 100 hours was less than 10%.); hydrolysis, u-PA (symbol d) (urokinase (u-PA); at 100 hours): d (hydrolysis at 100 hours was less than 10%.); hydrolysis, IXa (symbol d) (factor IXa): d (hydrolysis at 100 hours was less than 10%.) |
